The results in this text go back to article PMC5770468, “Cardiac glycoside/aglycones inhibit HIV-1 gene expression by a mechanism requiring MEK1/2-ERK1/2 signaling” (Scientific Reports, 2018).

SMILES strings stand for the structures. Read-outs that look alike come from different tables or passages of the source.

The subject of one assay is clinical strains of HIV. Nature of the assay: microbe, parasite or virus in culture. It counts as cell-based. The following applies: for IC50 / IC90: Human immunodeficiency virus 1, PBMC, 336 h; for IC50: read-out: IC50 (nM) HIV-infected PBMCs; for IC90: read-out: IC90, viral growth in HIV-infected PBMCs. On the procedure:
PBMCs from HIV infected patients were depleted of CD8^+ T cells (Supplementary Fig. S3), activated by anti-CD3 and anti-CD28 antibodies, and treated 20 d with indicated concentrations of drug/compound. HIV particle formation was quantitated by p24^CA ELISA of cell supernatants and viability of cells were assayed by XTT. […] Graphs of viral growth (p24 protein levels) and cell viability (gray circles, adjacent y-axis) of cells treated with drug/compounds (red triangles) or DMSO (black circles) are shown. The drug 3TC and the CS digoxin (d–e) were provided for comparison. […] Dose-response curves of CS effects on HIV replication (relative Gag expression, black circles) and cell viability (gray circles) were measured on day 14.
PBMCs were then seeded to 24-well plates in the presence/absence of indicated drug/compounds (0.5 mL final) which were pre-diluted in RPMI^+++ in the same manner as described above. Every 3–4 days, ~0.25 mL of media was harvested for assays and replenished with ~0.25 mL of fresh medium with drug/compound and 20 U/mL of IL-2. HIV growth in cultures was monitored by p24^CA ELISA of cell supernatants harvested (detailed below) and the effect of compounds on cell viability were monitored by XTT assay.
(§1) To monitor HIV-1 gene expression or replication, Gag release into cell culture supernatants were assayed by ELISA using a p24^CA antigen capture assay kit (AIDS & Cancer Virus Program, NCI-Frederick, Frederick, MD USA). Media harvested from HIV clinical isolates were diluted ~10 fold (or as necessary) prior to performing this assay. For analysis of HIV-1 and SR protein expression (and phosphorylation states with calf intestinal alkaline phosphatase treatments), cells were lysed and analyzed by western blot as previously outlined. Phosphatase inhibitors (e.g. 10 mM sodium fluoride, 2 mM sodium orthovanadate) were added to solutions requiring phospho protein analyses. An anti-chicken NKA antibody (α6F, #a6F–c, Developmental Studies Hybridoma Bank, The University of Iowa, contributed by Douglas M. Fambrough, The Johns Hopkins University) was used as specified to detect NKA α1- and β1-subunits across species. […] Activation of MAPKs was determined by western blot quantitation and calculation of phospho/total protein levels. […] Images were exported as TIF files for assembly, rotation, and equal brightness/contrast adjustments in ImageJ or Microsoft Powerpoint. Some lanes were cropped and rearranged from the same blot/gel as indicated. In representative gel/blot sets, samples were electrophoresed from the same experiment as controls, resolved simultaneously on identically cast gel(s), transferred to same PVDF (by either wet electrophoretic or by Bio-Rad Trans-Blot® Turbo Transfer System), and detected at same time. Marked locations of molecular weight (MW) standards are shown on the left as a reference. […] SUnSET analysis of total cellular protein synthesis. HeLa rtTA-HIV-ΔMls cells were cultured in the presence/absence of compound and pathway inhibitor (if any) and Dox induced for ~24 h as already described, then treated with puromycin (10 μg/mL, Sigma-Aldrich, #P8833) for 30 min to label nascent proteins prior to harvest. As control, 10 µM of cycloheximide (Sigma-Aldrich, #C4849) was added to some cells prior to puromycin treatment. Cells were subsequently washed, whole cell lysates prepared, and proteins quantified by western blot using an anti-puromycin antibody (EMD Millipore, #anti-12D10) as described above. Transfection of plasmid DNA into cells. Transfection of pCMV6-HA-AKT-1 (WT, KM, or Myr) or CMV myc and with CMV tTA pA and CMV PLAP plasmids into HeLa rtTA-HIV-ΔMls cells were performed by polyethylene imine (PEI) transfection as previously described[9],[10].

For the next assay, the system named is HIV-1 Rev. Nature of the assay: Immunoblot of HIV-1 Rev (p19) in HeLa rtTA-HIV-ΔMls cells. It counts as cell-based. Here is the method:
as §1
Background: A western blot detects proteins with antibodies after separation by electrophoresis.

The mark [1] stands for this setting: p24CA ELISA, day 14, inferred near maximal IC50s.

With `C[C@H]1O[C@@H](O[C@H]2[C@@H](O)C[C@H](O[C@H]3[C@@H](O)C[C@H](O[C@H]4CC[C@@]5(C)[C@H](CC[C@@H]6[C@@H]5C[C@@H](O)[C@]5(C)[C@@H](C7=CC(=O)OC7)CC[C@]65O)C4)O[C@@H]3C)O[C@@H]2C)C[C@H](O)[C@@H]1O` [Digoxin], in the assay on clinical strains of HIV, the IC50 (in general, the point on the concentration scale where inhibition reaches its midpoint) is approximately 1.1 nM and the IC90 (usually the concentration at which the effect reaches the 90% level) was 2 nM. Besides, in the assay on HIV-1 Rev, the Rev accumulation entry is “reduce Rev accumulation”.

On to `CC(=O)O[C@H]1C[C@H](O[C@H]2[C@@H](O)C[C@H](O[C@H]3[C@@H](O)C[C@H](O[C@H]4CC[C@@]5(C)[C@H](CC[C@@H]6[C@@H]5C[C@@H](O)[C@]5(C)[C@@H](C7=CC(=O)OC7)CC[C@]65O)C4)O[C@@H]3C)O[C@@H]2C)O[C@H](C)[C@H]1O[C@@H]1O[C@H](CO)[C@@H](O)[C@H](O)[C@H]1O` [Lanatoside C], for which the Rev accumulation result in the assay on HIV-1 Rev is “reduce Rev accumulation”.

Consider `C[C@H]1O[C@@H](O[C@H]2[C@@H](O)C[C@H](O[C@H]3[C@@H](O)C[C@H](O[C@H]4CC[C@@]5(C)[C@H](CC[C@@H]6[C@@H]5CC[C@]5(C)[C@@H](C7=CC(=O)OC7)CC[C@]65O)C4)O[C@@H]3C)O[C@@H]2C)C[C@H](O)[C@@H]1O` [Digitoxin], for which the “concentration to inhibit viral replication in HIV-infected PBMCs, fold lower than serum concentration in patients treated for heart conditions” value in the assay on clinical strains of HIV is 15–26 fold. The IC90 with clinical strains of HIV (Day14, p24CA ELISA) stood at 7.5 nM. Moreover, the IC50 in the assay on clinical strains of HIV (setting [1]) was approximately 1.3 nM. Moreover, in the assay on HIV-1 Rev, the Rev accumulation result is reported as “no effect on Rev accumulation”.

As for `C[C@]12CC[C@H](O)C[C@H]1CC[C@@H]1[C@@H]2CC[C@]2(C)[C@@H](C3=CC(=O)OC3)CC[C@]12O` [Digitoxigenin], the IC90 in the assay with clinical strains of HIV (Day14, p24CA ELISA) worked out at 2 nM. For the same compound, the half-inhibitory concentration (IC50) with clinical strains of HIV (setting [1]) is approximately 1.1 nM.

On to `C[C@@H]1O[C@@H](O[C@H]2C[C@@H](O)[C@]3(CO)[C@H]4[C@H](O)C[C@]5(C)[C@@H](C6=CC(=O)OC6)CC[C@]5(O)[C@@H]4CC[C@]3(O)C2)[C@H](O)[C@H](O)[C@H]1O` [Ouabain], for which the Rev accumulation entry in the assay with HIV-1 Rev was “no effect on Rev accumulation”.
